The record followed here is patent EP2960339A1, “Method and kit for the identification of glycosyl transferase substrates” (Technische Universität München, priority 2014, dated 2015).

Holding throughout (type): biochemical
Test [1] deals with T1, VvGT14a (Vitis vinifera, UniProt F6H0R6). Description: Substrate screening, radiochemical activity assay with UDP-[14C]glucose. Particulars: for conversion of putative substrate (in words): substrate screening, Figure 3. The method, then:
(§1) In the initial screening, each reaction mixture (200 µL in total) contained Tris-HCl buffer (100 mM, pH 8, 10 mM 2-mercaptoethanol), 37 pmol UDP-[^14C]glucose (0.01 µCi, Biotrend, Köln, Germany), substrate (50 µL of a 1 mg/mL stock solution) and purified protein (0.5-0.8 µg/µL). The reaction mixture was incubated at 30 °C for 18.5 hours. The assays were stopped by adding 1 µL 24% trichloroacetic acid and extracted with 500 µL water-saturated 1-butanol. The organic phase was mixed with 2 mL Pro Flow P+ cocktail (Meridian Biotechnologies Ltd., Epsom, UK) and radioactivity was determined by liquid scintillation counting (LSC, Tri-Carb 2800TR, Perkin Elmer, Waltham MA, USA). Additionally, negative controls without substrate were performed.
(§2) After determining the optimal conditions for the best substrate of each gene, the substrate screening was repeated under these conditions.
(§3) The alleles of VvGT14a-c, 15a-c and 16 were isolated from V. vinifera cultivars and cloned in the expression vector pGEX-4T-1. The recombinant proteins were expressed with an N-terminal GST-tag, affinity purified and verified by SDS-PAGE and Western Blot using GST-specific antibody. Enzyme activity studies were performed with UDP-[^14C]glucose and various putative substrates (terpenols, flavonoids and different mono-alcohols) that are known to be glycosidically bound and present in grapes (Gunata et al., 1988).

The target of test [2] is T2, VvGT15a (Vitis vinifera, UniProt F6GUW0). The description is as above. The note with it: substrate screening, Figure 3. The method, then:
as §1, §2, §3

In test [3] the target is T3, VvGT15b (Vitis vinifera, UniProt F6GUW0). The description is as above. The note with it: substrate screening, Figure 3. The method, then:
as §1, §2, §3

In test [4] the target is T4, VvGT16 (Vitis vinifera, UniProt F6HTJ4). The test is described as above. The note with it: substrate screening, Figure 3. The method, then: as §1, §2, §3
For test [5], the target named is T5, VvGT15c (Vitis vinifera, UniProt F6GUW0). The test is described as above. Particulars: for conversion of putative substrate (in words): substrate screening, Figure 3. The method, then: as §1, §2, §3
Test [6] has as its target T1, VvGT14a. Description: Enantioselectivity by chiral phase SPME-GC-MS after hydrolysis of the formed glucoside. Particulars: racemic substrate, prolonged incubation (24 h), aglycone liberated by hydrolysis. As for the experimental part:
(§4) To determine the enantioselectivity of VvGT14 and VvGT15 the enantiomeric ratio of glucosidically bound citronellol and linalool was determined by enantioselective GC-MS. Following the incubation, residual citronellol and linalool were completely removed by extraction with dichloromethane. Citronellyl ß-D-glucoside which remained in the aqueous phase was hydrolyzed by HCl (2 mL, 0.1 M, pH 1) for one hour at 100 °C to release citronellol (Skouroumounis and Sefton, 2000). In case of linalyl ß-D-glucoside an enzymatic hydrolysis (AR 2000, citric acid buffer pH 4, 24 h) was applied due to the instability of linalool in acid solutions (Williams et al., 1982). […] After hydrolysis, citronellol and linalool were analyzed by SPME-GC-MS as described above.
(§5) GC-MS analysis was performed with a Varian GC-450 coupled to a Varian MS-240 ion-trap employing a Phenomenex Zebron ZB-WAXplus column (30 m x 0.25 mm x 0.25 µm, Aschaffenburg, Germany). Helium flow rate was 1 mL/min. The analysis was carried out in split mode (liquid injections) or splitless mode (SPME measurements) with 220 °C injector temperature. EI (electron impact ionization)-MS spectra were recorded from m/z 40 to 300 (ionization energy 70 eV; trap temperature 170 °C). The oven temperature program was 60 °C (3 min), 10 °C/min up to 250 °C (5 min). In case of SPME measurements, liberated aglycones were isolated for 10 min at 60°C using a fiber coated with a 85 µm film of polyacrylate (SUPELCO, Bellefonte, USA). After extraction the SPME fiber was desorbed for 10 min at 250°C in the injection port of the GC-MS system and the column oven program was carried out as described above. Enantioselective GC-MS analysis was performed with a Varian GC-450 coupled to a Varian MS-240 ion-trap. The column was a DiAcß (heptakis-(2,3-di-O-acetyl-6-O-tert.-butyldimethylsilyl)-ß-cyclodextrin), 26 m x 0.32 mm i.d. with a 0.1 µm film. […] GC-MS measurements were recorded in full scan mode. Selected ion monitoring (SIM) mode was used for quantification.

The target in test [7] is T2, VvGT15a. Described as above. The note with it: racemic substrate, prolonged incubation (24 h), aglycone liberated by acid hydrolysis. As for the experimental part:
as §4, §5

Test [8] addresses T1, VvGT14a. Description: Activity based profiling using a physiologic aglycone library (radio-TLC, GC-MS). Particulars: Figure 7. As for the experimental part: For the preparation of aglycone extracts 50 g (fresh weight) grape skins or 4 g (fresh weight) inflorescences of Gewurztraminer Gm 11-18 were ground to a fine powder in liquid nitrogen. The isolation of glycosides was carried out as described above (see metabolite analysis). The methanolic fraction, which was obtained after SPE, was enzymatically hydrolysed. Therefore, the dried sample was dissolved in citric-acid buffer (0.1 M, pH 4), 50 mg AR 2000 (an enzyme preparation with glucosidase activity prepared from Aspergillus niger; DSM Food Specialties Beverage Ingredients, Delft, Netherlands) was added and incubated for 24 h with exclusion of light. The liberated aglycones were extracted by 20 mL methyl-tert-butyl ether and the organic phase was reduced to 1000µL using a gentle stream of nitrogen.
Aliquots of this aglycone extract were incubated with UDP-glucose and various VvGT-enzymes. Optimum conditions at 30 °C for 24 hours were applied. Each solution contained 100 µL purified enzyme, 100-150 µL Tris-HCl buffer (100 mM, pH7.5 or 8.5, 10 mM 2-mercaptoethanol), 37 pmol UDP-[^14C]glucose (0.01 µCi) and 50-100 µL extract (dissolved in methyl-tert-butylether). The buffer was mixed with the extract and the organic solvent was gently vaporized with nitrogen. The missing volume was adjusted with buffer before the enzyme was added. The reaction was stopped by adding 1 µL 24% trichloroacetic acid and extracted with 500 µL ethyl acetate. After termination of the reaction free aglycones, which were not converted by VvGT14 and VvGT15, were measured via SPME-(Solid Phase Microextraction)-GC-MS. These residual, free aglycones were completely removed by extraction with dichloromethane. Enzymatically formed glucosides were extracted by ethyl acetate, which was removed under nitrogen. The residue was dissolved in methanol and analyzed by LC-MS to detect the generated monoterpenol glucosides. Enzymatic hydrolysis of the glucosides was performed using AR 2000 and 2 mL citric-acid-buffer. After hydrolysis, a 100 µL aliquot was used to detect volatile aglycones via SPME-GC-MS. The remaining solution was extracted with methyl-tert-butyl ether and reduced under nitrogen to approximately 200 µL. One µL were measured by GC-MS via liquid injection.
Assays containing UDP-[^14C]glucose and aglycone libraries or substrates were performed as described above and subsequently extracted with 500 µL ethyl acetate. The organic solvent was vaporized and the pellet was re-suspended in 10 µL methanol and was applied on Silica Gel 60 F254 plates (Merck, Darmstadt, Germany). The dried plates were developed in a solvent system chloroform:acetic acid:water (50/45/5, v:v:v). Plates were dried and analyzed by digital autoradiograph (digital autoradiograph, EG&G Berthold, Wildbad, Germany).
An aglycone library of the two tissues was obtained by enzymatic hydrolysis of the glycosides followed by liquid-liquid extraction of the released alcohols and acids. […] The formed glycosides were separated by thin layer chromatography (TLC) and visualized by radiodetection whereas identification could be achieved by LC-MS and NMR analysis and, after hydrolysis, by GC-MS and LC-MS (Figure 6).

Test [9] concerns the target T1, VvGT14a. Particulars: for Km: monoterpenols at constant UDP-glucose […], UDP-glucose at fixed geraniol 100 µM, Tris-HCl pH 8.5, 30 °C; for kcat: pH 8.5.
The target in test [10] is T4, VvGT16. The test is described as follows: Kinetics (KM, kcat) with UDP-[14C]glucose, liquid scintillation counting. Particulars: monoterpenes at constant UDP-glucose 512.5 µM; UDP-glucose at fixed geraniol 1.25 mM; Tris-HCl pH 8.5, 30 °C.
The target of test [11] is T2, VvGT15a. The method, then: (§6) The measurements were performed under the following conditions. […] The assay of VvGT15a-c was performed at 30 °C using a Tris-HCl buffer (100 mM, 10 mM 2-mercaptoethanol, pH 7.5) and 10 min (VvGT15c) or 30 min (VvGT15a-b) of incubation for the best substrates. The amount of the purified enzyme and the incubation time were adapted depending on the counting sensibility. The reaction was stopped by adding 1 µL 24% trichloroacetic acid and glucosides were extracted with 100 µL ethyl acetate. Radioactivity was determined by LSC.
(§7) The KM- and vmax-values were calculated from Lineweaver-Burk plots, Hanes-Woolf plots and non-linear fitting of the experimental data.

The target of test [12] is T3, VvGT15b. The note with it: substrates at fixed UDP-glucose 833 µM; UDP-glucose at constant geraniol 1.25 mM; Tris-HCl pH 7.5, 30 °C. As for the experimental part: as §6, §7
Test [13] addresses T5, VvGT15c. The method, then:
as §6, §7

The mark [14] stands for this setting: citronellol enantiomers, Figure 12, highest level of extractable radioactivity = 100 %.
The mark [15] stands for this setting: substrates at fixed UDP-glucose 833 µM, UDP-glucose at constant geraniol 1.25 mM, Tris-HCl pH 7.5, 30 °C.

Each structure is given as a SMILES string. Where only a bound is given, the exact number is not on record here.

T5 sequence (F6GUW0 entry or part of it): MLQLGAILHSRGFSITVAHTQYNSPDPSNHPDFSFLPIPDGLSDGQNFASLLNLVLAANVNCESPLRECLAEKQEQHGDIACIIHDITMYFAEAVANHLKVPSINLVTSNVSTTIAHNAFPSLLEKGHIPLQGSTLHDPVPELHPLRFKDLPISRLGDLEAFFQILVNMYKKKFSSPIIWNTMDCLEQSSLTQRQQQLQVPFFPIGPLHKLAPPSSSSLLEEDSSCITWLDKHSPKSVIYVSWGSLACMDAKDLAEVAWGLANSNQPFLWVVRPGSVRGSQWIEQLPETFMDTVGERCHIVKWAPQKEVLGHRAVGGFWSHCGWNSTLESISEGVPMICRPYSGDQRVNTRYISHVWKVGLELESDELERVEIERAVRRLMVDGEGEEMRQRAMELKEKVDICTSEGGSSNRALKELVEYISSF
T3 sequence (F6GUW0 entry or part of it): as above
T2 sequence (F6GUW0 entry or part of it): as above
T4 sequence (F6HTJ4 entry or part of it): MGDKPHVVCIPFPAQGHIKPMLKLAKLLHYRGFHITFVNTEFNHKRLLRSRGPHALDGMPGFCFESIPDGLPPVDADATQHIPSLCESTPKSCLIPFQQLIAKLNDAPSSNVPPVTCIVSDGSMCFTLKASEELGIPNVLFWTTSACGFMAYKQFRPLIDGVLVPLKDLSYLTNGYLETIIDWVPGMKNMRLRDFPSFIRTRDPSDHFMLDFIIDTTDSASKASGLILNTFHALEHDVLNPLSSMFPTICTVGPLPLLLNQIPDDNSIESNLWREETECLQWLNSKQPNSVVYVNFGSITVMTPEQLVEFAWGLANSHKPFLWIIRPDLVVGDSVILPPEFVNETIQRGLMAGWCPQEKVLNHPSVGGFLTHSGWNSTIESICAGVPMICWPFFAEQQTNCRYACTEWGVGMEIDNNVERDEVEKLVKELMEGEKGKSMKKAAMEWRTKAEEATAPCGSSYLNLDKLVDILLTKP
T1 sequence (F6H0R6 entry or part of it): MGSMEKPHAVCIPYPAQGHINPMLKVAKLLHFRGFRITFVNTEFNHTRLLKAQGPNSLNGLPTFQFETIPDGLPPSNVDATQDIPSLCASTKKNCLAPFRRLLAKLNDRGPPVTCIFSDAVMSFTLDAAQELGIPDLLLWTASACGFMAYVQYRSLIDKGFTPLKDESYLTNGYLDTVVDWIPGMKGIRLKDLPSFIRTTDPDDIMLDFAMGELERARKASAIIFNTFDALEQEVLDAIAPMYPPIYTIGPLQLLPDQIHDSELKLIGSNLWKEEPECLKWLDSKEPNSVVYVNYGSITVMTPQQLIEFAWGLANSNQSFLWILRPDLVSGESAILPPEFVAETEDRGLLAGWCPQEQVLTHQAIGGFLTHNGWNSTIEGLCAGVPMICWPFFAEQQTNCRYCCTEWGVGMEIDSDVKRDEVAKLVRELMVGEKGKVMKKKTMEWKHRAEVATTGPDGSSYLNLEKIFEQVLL

For `CC(C)=CCCC(C)CCO` (racemic) [citronellol (rac), (R,S)-3,7-dimethyl-6-octen-1-ol], the relative specific activity in test [1] (setting [14]) and in test [5] (setting [14]) was 100% in each case. For the same molecule, the “conversion of putative substrate (in words)” value (“conversion” below) is on record as “preferred” in test [1]; “glucosylated primarily” in test [2]; “glucosylated primarily” in test [3]; “transformed” in test [4]; “glucosylated primarily” in [5]. Further, the “enantiomeric preference (in words)” value in test [6] and in test [7] was “no enantio-discrimination” each time. Also, the “aglycone liberated by enzymatic hydrolysis of the glucosides formed from the grape skin aglycone library (in words)” value (“aglycone liberated” below) in test [8] is “remarkable quantities”. Further, the Km in test [9] turned out to be 9 ± 0.3 µM. Further, the kcat in test [9] came to 0.02 s⁻¹.

As for `C=CC(C)(O)CCC=C(C)C` (racemic) [linalool (rac), (R,S)-3,7-dimethyl-1,6-octadien-3-ol], the “conversion” value in test [1] is “catalytic activity”. In test [6], the “enantiomeric preference (in words)” value was “slight enrichment of the R-enantiomer”. Besides, the “aglycone liberated” value in test [8] is “remarkable quantities”. In test [9], the Michaelis constant (Km) was found to be 47 ± 0.1 µM and the kcat amounted to 0.0003 s⁻¹.

With `CC(C)=CCC/C(C)=C\CO` [Nerol, (Z)-3,7-dimethyl-2,6-octadien-1-ol], in test [1] (relative to conversion of geraniol (100 %), extractable radioactivity), the relative specific activity is over 80%. Besides, the “conversion” value is “glucosylated primarily” in test [2], “glucosylated primarily” in test [3], “transformed” in test [4] and “glucosylated primarily” in test [5]. The Km in test [10] was determined as 118 ± 4.7 µM; in test [9], 10 ± 0.7 µM; in [11] (setting [15]), 48 ± 1.7 µM; in test [12], 40 ± 3.7 µM; in test [13] (setting [15]), 28 ± 0.9 µM. Also, the kcat amounted to 0.009 s⁻¹ in test [10]; 0.02 s⁻¹ in test [9]; 0.04 s⁻¹ in [11] (pH 7.5); 0.03 s⁻¹ in test [12]; 0.06 s⁻¹ in [13] (pH 7.5). Also, the “aglycone liberated” value in test [8] is “remarkable quantities”.

In general, Km refers to the concentration of substrate that gives half-maximal velocity. A word on the kcat: it is the maximal rate divided by the concentration of active sites.
